One molecule from paper PMC11302339, “A series of pyrimidine-based antifungals with anti-mold activity disrupt ER function in Aspergillus fumigatus” (Microbiology Spectrum, 2024) can be followed below.

One series concerns A. fumigatus CEA10. In words: ER stress interactions on GMM plates. The format is cell-based, Aspergillus fumigatus. To be noted: 1 µg/mL 1 on GMM. Here is the method: For Aspergillus fumigatus, 5 µL of 1 × 10^4 CEA10 conidia was spotted at the center of GMM plates containing DMSO or 1 µg/mL 1 in combination with DTT, brefeldin A, or tunicamycin. Plates were incubated at 37°C for 72 hours. Representative images of two independent experiments with three biological replicates each were obtained. For Ire1 strains, the cells were prepared as described above but were incubated at 30°C.

For another series, the system named is A. fumigatus. In words: MIC testing in the presence of 10% serum. It counts as cell-based, Aspergillus fumigatus. Here is the method: MICs were determined using Clinical and Laboratory Standards Institute guidelines ([48], [49]). All yeasts were cultured overnight in 3 mL YPD at 30°C, then washed twice in sterile phosphate-buffered saline (PBS). Twofold serial dilutions of each drug were prepared in RMPI + MOPS, then 1 × 10^3 cells were added per well. For mold species, wells were inoculated with 1.25 × 10^3 conidia per well. Plates were incubated at 37°C for 24 (Candida spp. and S. cerevisiae), 48 (Aspergillus spp., M. circinelloides, S. apiospermum, and L. prolificans), or 72 (C. neoformans and F. oxysporum) hours. S. cerevisiae BY4743 MICs were tested in YPD due to nutritional requirements of this strain. Each assay was performed in technical duplicate in at least two independent experiments performed on different days.

Another series has as its system Hog1. In words: Western blotting for total and phosphorylated Hog1. The format is cell-based, Cryptococcus neoformans. The procedure: C. neoformans H99 overnight cultures were diluted to OD = 0.1 in YPD and incubated at 30°C for 3 hours with shaking. Cultures were split into four subcultures and treated with DMSO or 1 µg/mL 1 (two each) for 2 hours at 30°C, then water or 1 M NaCl was added to one culture of each treatment and incubated for an additional 30 min at 30°C. Cell pellets were snap frozen and stored at −80°C. Protein was extracted in extraction buffer (10 mM HEPES, pH 7.4–7.9, 1.5 mM MgCl2, 10 mM KCl, 1 mM DTT, 1× HALT protease and phosphatase inhibitor cocktail) by bead beading for 30 s on 60 s off with incubation on ice five times. The supernatant was removed from glass beads, and protein concentration was quantified by Bradford protein assay. Twenty micrograms of protein was loaded on a 10% SDS-PAGE gel and run at 80 V. Samples were transferred to nitrocellulose membrane for 1 hour at 100 V, then the membrane was stained with Ponceau for 15 min at RT. Membranes were blocked with 5% bovine serum albumin (BSA) in Tris-buffered saline with Tween 20 (TBST) for 1 hour at room temperature, then incubated with 1:10,000 rabbit anti-p-p38 (Phospho-p38 MAPK, # 9211; Cell Signaling) in 5% BSA/TBST or 1:5,000 custom Hog1 antibody # R02361 (GenScript) overnight at 4°C. […]
(In general: Immunoblotting shows a protein as a band on a membrane.)

The subject of series [1] is A. fumigatus collagenase secretion. In words: Detection of secreted collagenase by azocoll. The format is cell-based, Aspergillus fumigatus. The procedure:
1 × 10^6 CEA10 conidia/mL were cultured in 25 mL liquid GMM for 18 hours, then mycelia were washed with sterile ddH2O and transferred to 10% FBS-MM and treated with DMSO or the indicated concentration of drugs. Cultures were incubated at 37°C, 250 rpm, for an additional 24 hours, then the supernatant and biomass were collected. One milliliter of supernatant was spun at top speed for 5 min. Azocoll of <50 mesh (Sigma, Cat # 194932) was washed in buffer (50 mM Tris, pH 7.5, 1 mM NaCl, and 0.01% sodium azide) then resuspended to 5 mg/mL. Fifteen microliters of culture supernatant was added to the 2 mL azocoll solution and incubated at 37°C with shaking at 300 rpm for 3 hours in the dark. Reactions were spun at maximum speed for 3 min; 200 µL of supernatant was then transferred to a 96-well plate; and Abs 520 was measured. Biomass was lyophilized, and absorbance readings were normalized to milligram tissue. Data represent the mean and SEM of biological triplicates with technical duplicates except for compounds 5 and 7, which are biological duplicates due to the limited availability of the drug and the required culture size for this assay.

Series [2] can be described thus: Mouse microsome stability. It counts as in vitro ADME. The following applies: mouse microsomes, 0.5 mg/mL microsomes, NADPH cofactors, 37°C. The procedure: 1 (2 mM in DMSO) was incubated at 37°C with 0.5 mg/mL mouse microsomes (lot # 2110330) fraction and Phase I (NADPH regenerating system) cofactors for 0–120 min at a final concentration of 2 µM. Reactions were quenched with 0.5 mL (1:1) of methanol containing formic acid (FA) 0.2% and 100 ng/mL n-benzylbenzamide internal standard (IS; 0.1% FA and 50ng/mL IS final). Samples were vortexed for 30 s, incubated at room temperature for 10 min, and spun for 5 min at 2,200 rpm in a tabletop centrifuge. Supernatant (~0.9 mL) was then transferred to an Eppendorf tube and spun in a 4°C microfuge for 5 min at 13,200 rpm. Supernatant was transferred to an high-performance liquid chromatography plate with seal and samples then analyzed by a 4500 LC-MS/MS.

In a further series the test system is C. neoformans ∆ire1. In words: Susceptibility of ∆ire1 mutant on YPD plates. To be noted: YPD with 4 or 16 µg/mL 1, 30 °C, 72 hours. The format is cell-based, Cryptococcus neoformans. Here is the method:
To determine interactions of 1 with ER stress in Cryptococcus neoformans, an overnight culture of H99 was diluted to 1 × 10^6 CFU/mL, then three 10-fold dilutions were prepared. Three-microliter spots of each cell dilution were plated in triplicate on YPD containing DMSO or 4 µg/mL 1 in combination with DTT, brefeldin A, or tunicamycin. Plates were incubated at 37°C for 72 hours. Images are representative of two independent experiments performed in biological triplicate.
Supplemental Figure 3. 1 interacts with ER stress in C. neoformans but activity is not dependent on Ire1. A) Serial dilutions of C. neoformans H99 on YPD with DMSO or 4 µg/mL 1 combined with ER stresses Brefeldin A (BfA), DTT, or Tunicamycin (Tun). Plates were incubated at 37 °C for 72 hours. Representative images of two independent experiments with three biological replicates each. B) Serial dilutions of C. neoformans H99 wild type and ∆ire1 mutant on YPD containing 4 µg/mL 1, 16 µg/mL 1 or DMSO incubated at 30 °C for 72 hours.
Representative images of two independent experiments with three biological replicates each.
(1 picture or pasted object on this page, not shown here)

A word on the half-life: it is the time needed for the level to fall by half in the phase considered. As for `OC1CC(c2cc(N3CCC(CCc4ccccc4)CC3)ncn2)C1` (stereo not shown) [compound 1], the “interaction with DTT” value in the series with A. fumigatus CEA10 (37°C, 72 hours) was “synergistic”. Besides, the “interaction with brefeldin A” value with A. fumigatus CEA10 (37°C, 72 hours) was “modest antagonism”. Also, the figures for the interaction with tunicamycin result in the series with A. fumigatus CEA10 (10 µg/mL tunicamycin) and in the series with A. fumigatus CEA10 (50 µg/mL tunicamycin) were “slight antagonism” and “no interaction”, respectively. The “increase in MIC in the presence of 10% serum” value with A. fumigatus (A. fumigatus) worked out at 2 fold. For the same molecule, the MIC with A. fumigatus (Aspergillus fumigatus, read-out: MIC w/serum) came to 32 µg/mL. For the same molecule, the Hog1 phosphorylation result in the series with Hog1 (1 µg/mL 1 alone for 2 hours at 30°C) was “activation of Hog1 via phosphorylation”. Besides, the “Hog1 phosphorylation, combination with salt” value in the series with Hog1 (1 µg/mL 1 for 2 hours, then 1 M NaCl 30 min) is recorded as “additive”. Also, the collagenase secretion result in series [1] (1 µg/mL, 24 hours in 10% FBS-MM) was “did not change collagenase secretion”; in series [1] (2, 4, 8 and 16 µg/mL, 24 hours in 10% FBS-MM, dose-dependent), “significantly inhibited”; in series [1] (treated with 1/2 MIC of each compound) it was “inhibition of collagenase secretion was similar”. The same molecule yielded a half-life at 2 µM in series [2] of 1.25 h. Also, the “susceptibility of ∆ire1 mutant vs wild type” value in the series on C. neoformans ∆ire1 is recorded as “did not show increased susceptibility”.
